This note sets out measurements from patent US20230132823A1, “BI-FUNCTIONAL COMPOUNDS AND METHODS FOR TARGETED UBIQUITINATION OF ANDROGEN RECEPTOR” (MONTELINO THERAPEUTICS, INC., priority 2020, published 2023).

For one experiment, the system named is PC3. Put plainly: PC3 cell proliferation. Type of experiment: cell-based, human. Conditions: AR-negative cell line; 1 μM. The method, then:
The human prostate cancer cell line, 22Rv1 has been reported to express a high level of AR-V7. Thus, 22Rv1 was seeded at 50,000 cells/well on a 24-well plate in quadruplicates and treated with test compound in concentrations ranging up to 20 μM for four days. Standard culture media was RPMI-1640 supplemented with 10% fetal bovine serum. The test compound initially was dissolved in DMSO at 50 mM. This stock solution was then diluted as needed for the indicated concentrations. At the end of the four-day period, cells were harvested using 1% trypsin and counted using an automated cell counter.
Cell Culture. Human CaP cell lines, LNCaP, 22Rv1, VCaP, PC3, and DU145 are obtained from the American Type Culture Collection (ATCC) and maintained in the standard culture media: RPMI-1640 supplemented with 10% fetal bovine serum (FBS). LNCaP, 22Rv1, and VCaP are androgen-responsive cell lines, while PC3 and DU145 are not. To establish SAT resistant CaP cell lines, LNCaP, 22Rv1, and VCaP are treated continuously with 10-50 μM abiraterone, apalutamide, darolutamide, or enzalutamide. […] Mycoplasma contamination is also assessed using a PCR based detection system.

Another experiment deals with VCaP. Put plainly: VCaP cell proliferation. Type of experiment: cell-based, human. Conditions: androgen-responsive cell line; 1 μM.
For experiment [1], the target named is T1, estrogen receptor alpha (ER) (Homo sapiens, UniProt P03372).
T1 construct: progesterone receptor (PR) a and b, and estrogen receptor alpha (ER); endogenous in cells; host or cells: 22Rv1
T1 sequence (P03372 1-595): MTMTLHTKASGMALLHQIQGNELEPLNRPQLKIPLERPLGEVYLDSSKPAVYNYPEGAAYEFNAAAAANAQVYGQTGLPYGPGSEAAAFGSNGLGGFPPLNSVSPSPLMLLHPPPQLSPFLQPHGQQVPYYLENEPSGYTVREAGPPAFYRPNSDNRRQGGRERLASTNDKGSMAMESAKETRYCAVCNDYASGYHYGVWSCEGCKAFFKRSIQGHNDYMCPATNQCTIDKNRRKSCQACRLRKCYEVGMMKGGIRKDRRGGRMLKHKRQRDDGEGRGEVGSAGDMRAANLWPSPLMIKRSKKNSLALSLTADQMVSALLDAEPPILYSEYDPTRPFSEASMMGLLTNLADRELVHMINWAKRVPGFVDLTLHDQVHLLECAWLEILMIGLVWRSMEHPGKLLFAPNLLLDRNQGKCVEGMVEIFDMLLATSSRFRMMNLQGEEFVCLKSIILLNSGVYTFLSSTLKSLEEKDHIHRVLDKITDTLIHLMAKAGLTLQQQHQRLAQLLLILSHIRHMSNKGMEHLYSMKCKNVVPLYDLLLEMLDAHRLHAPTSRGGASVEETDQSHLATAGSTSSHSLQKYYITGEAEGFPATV
Briefly: Immunoblot of ER alpha in 22Rv1 cells. Format: cell-based. The conditions noted are these: 22Rv1, 24 hours, up to 10 μM. The method, then: Cell Culture. Human CaP cell lines, LNCaP, 22Rv1, VCaP, PC3, and DU145 are obtained from the American Type Culture Collection (ATCC) and maintained in the standard culture media: RPMI-1640 supplemented with 10% fetal bovine serum (FBS). LNCaP, 22Rv1, and VCaP are androgen-responsive cell lines, while PC3 and DU145 are not. To establish SAT resistant CaP cell lines, LNCaP, 22Rv1, and VCaP are treated continuously with 10-50 μM abiraterone, apalutamide, darolutamide, or enzalutamide. After 3-6 months, stable cell lines are established and designated as LNCaP-Abi^R, LNCaP-Apa^R, LNCaP-Daro^R, LNCaP-Enz^R, VCaP-Abi^R, VCaP-Apa^R, VCaP-Daro^R, VCaP-Enz^R, 22Rv1-Abi^R, 22Rv1-Apa^R, 22Rv1-Daro^R and 22Rv1-Enz^R. Unless otherwise specified, the standard culture media for these SAT-resistant cell lines included 10 μM of their respective SAT. For the proteasome inhibitor study, the inhibitors MG132 and Epoxomicin are used. The E3 ligase inhibitors Heclin, Nutlin 3a, Thalidomide, and VH298 are used. […] Mycoplasma contamination is also assessed using a PCR based detection system.
Immunoblot Analysis. […] Cell lysates are then centrifuged and protein in the supernatant is quantified. […] Following the incubation with appropriate secondary antibody, immunoblots are analyzed using SuperSignal West Femto Maximum Sensitivity Substrate (ThermoFisher).

The subject of experiment [2] is 22Rv1 cells transfected with AR-V7 or AR-FL. Put plainly: Proliferation of 22Rv1 cells transfected with AR-V7 and/or AR-FL. Conditions: 1 μM. Format: cell-based, human. From the text:
Transient Transfections. One μg of a plasmid containing cDNA of AR-V7 or AR-FL is transfected into indicated the CaP cell lines on 6-well plates. Three μl of lipofectamine 3000 is used for each transfection.

The next experiment has as its target T2, AR-V7 (Homo sapiens, UniProt P10275).
T2 sequence (P10275 1-644 isoform P10275-3): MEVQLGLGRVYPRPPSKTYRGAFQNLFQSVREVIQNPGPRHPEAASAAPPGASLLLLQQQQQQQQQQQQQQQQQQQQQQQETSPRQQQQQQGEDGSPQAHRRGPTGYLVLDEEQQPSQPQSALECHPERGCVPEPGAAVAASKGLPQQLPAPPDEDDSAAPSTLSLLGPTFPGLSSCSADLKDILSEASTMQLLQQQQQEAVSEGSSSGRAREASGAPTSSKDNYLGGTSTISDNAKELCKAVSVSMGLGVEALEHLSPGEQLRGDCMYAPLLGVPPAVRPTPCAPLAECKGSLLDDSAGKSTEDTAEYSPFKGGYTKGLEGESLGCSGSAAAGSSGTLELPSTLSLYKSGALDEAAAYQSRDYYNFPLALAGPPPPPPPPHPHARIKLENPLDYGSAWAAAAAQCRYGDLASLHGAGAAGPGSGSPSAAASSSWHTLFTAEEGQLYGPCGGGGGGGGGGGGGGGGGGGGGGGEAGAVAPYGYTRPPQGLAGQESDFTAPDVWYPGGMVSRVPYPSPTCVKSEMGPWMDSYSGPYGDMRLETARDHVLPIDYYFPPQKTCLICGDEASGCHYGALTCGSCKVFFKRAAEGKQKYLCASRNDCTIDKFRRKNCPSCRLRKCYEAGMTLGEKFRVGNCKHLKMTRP
Briefly: Immunoblot of AR-V7 polyubiquitination in 22Rv1 pretreated with MG132. Type of experiment: cell-based. Also on record: endogenous in cells; host or cells: 22Rv1. Conditions: 22Rv1 pretreated with MG132 two hours; compound 1 μM. The method, then: Immunoblot Analysis. CaP cells are collected and lysed with the lysis buffer (20 mM Tris-HCl (pH 7.5), 150 mM NaCl, 1 mM Na2EDTA, 1 mM EGTA, 1% Triton, 2.5 mM sodium pyrophosphate, 1 mM beta-glycerophosphate, 1 mM Na3VO4, and 1 μg/ml leupeptin) containing 1 mM phenylmethylsulfonyl fluoride (PMSF). Cell lysates are then centrifuged and protein in the supernatant is quantified. After separating 25-50 μg of protein using SDS-PAGE, samples are incubated with AR-V7, GR, PR, ERα, AR-FL, ubiquitin, or β-actin antibodies. For AR-V7, AR-FL, PR, GR, and ERα immunoblots, primary antibody is diluted 1:1000 in 5% skim milk. For the β-actin immunoblot, 1:10000 diluted primary antibody is used. All membranes are incubated overnight at 4° C. Following the incubation with appropriate secondary antibody, immunoblots are analyzed using SuperSignal West Femto Maximum Sensitivity Substrate (ThermoFisher).
To determine the ubiquitination status of AR proteins, 22Rv1 is pretreated with MG132 for two hours prior to adding Compound of Example 16 (at 1 μM).

In the case of `Cc1ncsc1-c1ccc([C@H](C)NC(=O)[C@@H]2C[C@@H](O)CN2C(=O)[C@@H](NC(=O)CCCCNC(=O)COc2c(-c3csc(N4CCOCC4)n3)ccc(F)c2F)C(C)(C)C)cc1` [Example 16, (2S,4R)-1-((S)-2-(5-(2-(2,3-difluoro-6-(2-morpholinothiazol-4-yl)phenoxy)acetamido)pentanamido)-3,3-dimethylbutanoyl)-4-hydroxy-N-((S)-1-(4-(4-methylthiazol-5-yl)phenyl)ethyl)pyrrolidine-2-carboxamide], the “effect on PC3 cells” value in the experiment with PC3 is listed as “not affected”. For the same compound, the “effect on proliferation of VCaP” value with VCaP was “inhibits the proliferation”. Further, in experiment [1], the “effect on expression level of estrogen receptor alpha (ER)” value was “no visible effect”. For the same compound, the “inhibitory effect after transfection of both AR-V7 and AR-FL into 22Rv1 cells” value in experiment [2] (both transfected) is “completely abrogated”. In experiment [2] (single transfection), the “inhibitory effect after transfecting AR-V7 or AR-FL into 22Rv1 cells” value is on record as “partial resistance”. Also, the “start of polyubiquitination of AR-V7 after treatment” value at AR-V7 was found to be 6 h.
